Earlier results as cited in US8926994B2, “Mesoporous silicon particles for the presentation of tumor antigens and adjuvant for anti-cancer immunity” (The Methodist Hospital Research Institute, priority 2011, dated 2015).

Test system: endothelial cells

SMILES: N.N.[Cl][Pt][Cl] [cis-platin]
- relative cell cycle composition / mitosis (propidium iodide DNA content) (12 and 24 hr, 10:1 microparticles:cell): inhibited cellular mitosis
- apoptotic volume (cell death) (flow cytometry): major accumulation of cell fragments
